Test [1] addresses T1, Human PDGFRα, cytoplasmic domain (GST-PDGFRα) (Homo sapiens, UniProt P16234).
T1 construct: made in house
In words: Human PDGFRα biochemical inhibition assay (off-chip Mobility Shift Assay).

The target of test [2] is T2, Human PDGFRβ, cytoplasmic domain (GST-PDGFRβ) (Homo sapiens, UniProt P09619).
T2 construct: made in house
In words: Human PDGFRβ biochemical inhibition assay (off-chip Mobility Shift Assay). As to the method:
Human PDGFRβ Biochemical Inhibition Assay
The compounds described herein were tested for the ability to inhibit activity of PDGFRβ which was achieved via use of an off-chip Mobility Shift Assay (MSA). Human PDGFRβ, cytoplasmic domain [557-1106 (end) amino acids of accession number NP_002600.1 (SEQ ID NO: 3)] was expressed as N-terminal GST-fusion protein (88 kDa) using baculovirus expression system (SEQ ID NO: 4). GST-PDGFRβ was purified by using glutathione sepharose chromatography. Test compounds were dissolved in and diluted with dimethylsulfoxide (DMSO) to achieve 1 mM concentration. Then the solution was further diluted 25-fold with assay buffer to make the final test compound solution. The reference compound, Staurosporine, used as the assay positive control was prepared similarly. The 4× compound solution/substrate (CSKtide, 1000 nM)/ATP (Km ATP)/Mg Metal (5 mM) was prepared with kit buffer (20 mM HEPES, 0.01% Triton X-100, 5 mM DTT, pH 7.5), and 2× kinase solution was prepared with assay buffer (20 mM HEPES, 0.01% Triton X-100, 1 mM DTT, pH 7.5). The 5 μL of 4× compound solution, […] of 4× Substrate/ATP/Metal solution, and […] of 2× kinase solution were mixed and incubated in a well of polypropylene 384 well microplate for 1 hour at room temperature. […] of Termination Buffer (QuickScout Screening Assist MSA; Carna Biosciences) was added to the well. The reaction mixture was applied to LabChip™ system (Perkin Elmer), and the product and substrate peptide peaks were separated and quantitated. The kinase reaction was evaluated by the product ratio calculated from peak heights of product(P) and substrate(S) peptides (P/(P+S)). The readout value of reaction control (complete reaction mixture) was set as a 0% inhibition, and the readout value of background (Enzyme(−)) was set as a 100% inhibition, then the percent inhibition of each test solution was calculated.
With respect to PDGFRβ activity: “+++” denotes an IC50 of less than 300 nM; “++” denotes an IC50 of from 300 nM to less than 1000 nM; and “+” denotes an IC50 of 1000 nM or more.

T2 sequence (P09619 with tags, fused parts or gaps): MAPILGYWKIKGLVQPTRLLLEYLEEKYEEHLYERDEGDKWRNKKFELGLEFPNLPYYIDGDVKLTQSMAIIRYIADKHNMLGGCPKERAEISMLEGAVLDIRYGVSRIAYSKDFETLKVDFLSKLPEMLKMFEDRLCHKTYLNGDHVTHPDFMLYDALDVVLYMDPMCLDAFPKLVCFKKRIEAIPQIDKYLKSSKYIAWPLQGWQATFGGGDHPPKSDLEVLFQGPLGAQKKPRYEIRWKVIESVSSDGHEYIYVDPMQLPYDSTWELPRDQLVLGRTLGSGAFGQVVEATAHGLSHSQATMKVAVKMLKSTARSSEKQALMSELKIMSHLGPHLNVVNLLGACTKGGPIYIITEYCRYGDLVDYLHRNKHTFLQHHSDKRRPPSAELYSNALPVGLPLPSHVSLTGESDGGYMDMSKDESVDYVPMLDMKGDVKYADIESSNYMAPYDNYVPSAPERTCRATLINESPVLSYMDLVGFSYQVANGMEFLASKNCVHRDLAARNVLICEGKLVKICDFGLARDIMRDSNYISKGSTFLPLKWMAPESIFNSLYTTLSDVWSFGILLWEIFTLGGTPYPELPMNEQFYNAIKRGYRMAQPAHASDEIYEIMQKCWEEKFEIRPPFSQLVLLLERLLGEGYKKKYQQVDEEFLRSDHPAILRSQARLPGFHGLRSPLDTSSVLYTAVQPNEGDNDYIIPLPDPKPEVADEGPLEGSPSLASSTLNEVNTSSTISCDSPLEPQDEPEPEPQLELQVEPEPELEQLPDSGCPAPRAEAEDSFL
T1 sequence (P16234 550-1089 T674I): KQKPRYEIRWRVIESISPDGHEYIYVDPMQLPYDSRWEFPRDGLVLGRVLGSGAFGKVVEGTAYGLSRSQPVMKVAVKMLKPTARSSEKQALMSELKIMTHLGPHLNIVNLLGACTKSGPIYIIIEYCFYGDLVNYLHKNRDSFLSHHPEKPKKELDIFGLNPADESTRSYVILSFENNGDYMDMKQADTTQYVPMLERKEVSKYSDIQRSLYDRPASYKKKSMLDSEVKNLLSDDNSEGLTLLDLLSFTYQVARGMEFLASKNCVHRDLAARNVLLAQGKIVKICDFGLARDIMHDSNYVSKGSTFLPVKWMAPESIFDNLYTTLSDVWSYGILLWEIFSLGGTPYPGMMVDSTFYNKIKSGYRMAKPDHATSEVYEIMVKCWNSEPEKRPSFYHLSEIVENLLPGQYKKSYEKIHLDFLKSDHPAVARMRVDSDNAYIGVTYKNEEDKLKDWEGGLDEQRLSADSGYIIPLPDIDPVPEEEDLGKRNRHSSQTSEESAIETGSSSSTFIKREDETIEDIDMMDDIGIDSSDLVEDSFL

Turning to `C[C@H](Nc1cnc2cnn(C)c2n1)c1cccc(NC(=O)N2CCc3ccccc3C2)c1` [Compound 55, (S)-N-(3-(1-((1-methyl-1H-pyrazolo[3,4-b]pyrazin-6-yl)amino)ethyl)phenyl)-3,4-dihydroisoquinoline-2(1H)-carboxamide], the IC50 in test [1] and in test [2] was under 0.3 µM in each case.

Take `CCn1cc2ncc(N[C@@H](C)c3cccc(NC(=O)c4cnc5c(c4)CCCO5)c3)nc2n1` [Compound 56, (S)-N-(3-(1-((2-ethyl-2H-pyrazolo[3,4-b]pyrazin-6-yl)amino)ethyl)phenyl)-3,4-dihydro-2H-pyrano[2,3-b] pyridine-6-carboxamide]: the IC50 in test [1] and in test [2] was under 0.3 µM in each case.

As to `CCn1cc2ncc(N[C@@H](C)c3cccc(NC(=O)c4cnc5ccccc5c4)c3)nc2n1` [Compound 57, (S)-N-(3-(1-((2-ethyl-2H-pyrazolo[3,4-b]pyrazin-6-yl)amino)ethyl)phenyl)quinoline-3-carboxamide], the IC50 in test [1] and in test [2] was under 0.3 µM in each case.

In the case of `CCn1cc2ncc(N[C@@H](C)c3cccc(NC(=O)c4cnc5c(c4)CCC5)c3)nc2n1` [Compound 58, (S)-N-(3-(1-((2-ethyl-2H-pyrazolo[3,4-b]pyrazin-6-yl)amino)ethyl)phenyl)-6,7-dihydro-5H-cyclope3nta[6] pyridine-3-carboxamide], the IC50 in test [1] and in test [2] was under 0.3 µM throughout.

In the case of `CCn1cc2ncc(N[C@@H](C)c3cc(NC(=O)c4cnc5c(c4)CCCO5)ccc3F)nc2n1` [Compound 59, (S)-N-(3-(1-((2-ethyl-2H-pyrazolo[3,4-b]pyrazin-6-yl)amino)ethyl)-4-fluorophenyl)-3,4-dihydro-2H-pyrano[2,3-b] pyridine-6-carboxamide], the IC50 in test [1] and in test [2] was under 0.3 µM in each case.

Take `CCn1cc2ncc(N[C@@H](C)c3cccc(NC(=O)c4cnc5[nH]ncc5c4)c3)nc2n1` [Compound 60, (S)-N-(3-(1-((2-ethyl-2H-pyrazolo[3,4-b]pyrazin-6-yl)amino)ethyl)phenyl)-1H-pyrazolo[3,4-b]pyridine-5-carboxamide]: the IC50 in test [1] and in test [2] was at least 1 µM in each case.

Consider `CCn1cc2ncc(N[C@@H](C)c3cccc(NC(=O)c4cnc5[nH]nc(C)c5c4)c3)nc2n1` [Compound 61, (S)-N-(3-(1-((2-ethyl-2H-pyrazolo[3,4-b]pyrazin-6-yl)amino)ethyl)phenyl)-3-methyl-1H-pyrazolo[3,4-b]pyridine-5-carboxamide], for which the IC50 in test [1] was 0.3 to 1 µM; in test [2], at least 1 µM.

On to `CCn1cc2ncc(N[C@@H](C)c3cccc(NC(=O)c4cnc5cnn(C)c5c4)c3)nc2n1` [Compound 62, (S)-N-(3-(1-((2-ethyl-2H-pyrazolo[3,4-b]pyrazin-6-yl)amino)ethyl)phenyl)-1-methyl-1H-pyrazolo[4,3-b]pyridine-6-carboxamide], for which the values for the IC50 in test [1] and in test [2] were 0.3 to 1 µM and at least 1 µM, respectively.

On to `CCn1cc2ncc(N[C@@H](C)c3cc(NC(=O)c4cnc5ccccc5c4)ccc3F)nc2n1` [Compound 63, (S)-N-(3-(1-((2-ethyl-2H-pyrazolo[3,4-b]pyrazin-6-yl)amino)ethyl)-4-fluorophenyl) quinoline-3-carboxamide], for which the IC50 in test [1] and in test [2] was under 0.3 µM throughout.

With `CCn1cc2ncc(N[C@@H](C)c3cccc(NC(=O)c4ccc5c(c4)OCO5)c3)nc2n1` [Compound 64, (S)-N-(3-(1-((2-ethyl-2H-pyrazolo[3,4-b]pyrazin-6-yl)amino)ethyl)phenyl) benzo[d][1,3]dioxole-5-carboxamide], the IC50 in test [1] is under 0.3 µM; in test [2] it was 0.3 to 1 µM.

With `CCn1cc2ncc(N[C@@H](C)c3cccc(NC(=O)c4ccc5c(c4)CCNC5)c3)nc2n1` [Compound 66, (S)-N-(3-(1-((2-ethyl-2H-pyrazolo[3,4-b]pyrazin-6-yl)amino)ethyl)phenyl)-1,2,3,4-tetrahydroisoquinoline-6-carboxamide], the IC50 in test [1] is under 0.3 µM; in test [2], 0.3 to 1 µM.

With `C[C@H](Nc1cnc2cnn(C)c2n1)c1cccc(NC(=O)c2ccc3c(c2)COC3=O)c1` [Compound 67, (S)-N-(3-(1-((1-methyl-1H-pyrazolo[3,4-b]pyrazin-6-yl)amino)ethyl)phenyl)-1-oxo-1,3-dihydroisobenzofuran-5-carboxamide], the IC50 in test [1] and in test [2] was under 0.3 µM in each case.

In the case of `C[C@H](Nc1cnc2cnn(C)c2n1)c1cccc(NC(=O)c2ccc3c(c2)OCCO3)c1` [Compound 68, (S)-N-(3-(1-((1-methyl-1H-pyrazolo[3,4-b]pyrazin-6-yl)amino)ethyl)phenyl)-2,3-dihydrobenzo[b][1,4]dioxine-6-carboxamide], the IC50 in test [1] and in test [2] was under 0.3 µM in each case.

`C[C@H](Nc1cnc2cnn(C)c2n1)c1cccc(NC(=O)c2cnc3c(c2)OCCO3)c1` [Compound 69, (S)-N-(3-(1-((1-methyl-1H-pyrazolo[3,4-b]pyrazin-6-yl)amino)ethyl)phenyl)-2,3-dihydro-[1,4]dioxino[2,3-b] pyridine-7-carboxamide]: the IC50 in test [1] and in test [2] was under 0.3 µM throughout.

Take `C[C@H](Nc1cnc2cnn(C)c2n1)c1cccc(NC(=O)c2cnc3c(c2)CCCO3)c1` [Compound 70, (S)-N-(3-(1-((1-methyl-1H-pyrazolo[3,4-b]pyrazin-6-yl)amino)ethyl)phenyl)-3,4-dihydro-2H-pyrano[2,3-b] pyridine-6-carboxamide]: the IC50 in test [1] and in test [2] was under 0.3 µM each time.

For the compound `C[C@H](Nc1cnc2cnn(C)c2n1)c1cccc(NC(=O)c2ccc3c(c2)CCCO3)c1` [Compound 71, (S)-N-(3-(1-((1-methyl-1H-pyrazolo[3,4-b]pyrazin-6-yl)amino)ethyl)phenyl)chromane-6-carboxamide], the IC50 in test [1] and in test [2] was under 0.3 µM in each case.

`C[C@H](Nc1cnc2cnn(C)c2n1)c1cccc(NC(=O)c2ccc3c(c2)CCC(=O)O3)c1` [Compound 72, (S)-N-(3-(1-((1-methyl-1H-pyrazolo[3,4-b]pyrazin-6-yl)amino)ethyl)phenyl)-2-oxochromane-6-carboxamide]: the IC50 in test [1] and in test [2] was under 0.3 µM in each case.

As for `C[C@H](Nc1cnc2cnn(C)c2n1)c1cccc(NC(=O)c2ccc3ncn(C)c3c2)c1` [Compound 73, (S)-1-methyl-N-(3-(1-((1-methyl-1H-pyrazolo[3,4-b]pyrazin-6-yl)amino)ethyl)phenyl)-1H-benzo[d]imidazole-6-carboxamide], the IC50 in test [1] and in test [2] was under 0.3 µM each time.

Regarding `CCn1cnc2ccc(C(=O)Nc3cccc([C@H](C)Nc4cnc5cnn(C)c5n4)c3)cc21` [Compound 74, (S)-1-ethyl-N-(3-(1-((1-methyl-1H-pyrazolo[3,4-b]pyrazin-6-yl)amino)ethyl)phenyl)-1H-benzo[d]imidazole-6-carboxamide], the IC50 in test [1] and in test [2] was under 0.3 µM throughout.

For `CC1OC(=O)c2ccc(C(=O)Nc3cccc([C@H](C)Nc4cnc5cnn(C)c5n4)c3)cc21` (stereo partly drawn) [Compound 76, 3-methyl-N-(3-((S)-1-((1-methyl-N-pyrazolo[3,4-b]pyrazin-6-yl)amino)ethyl)phenyl)-1-oxo-1,3-dihydroisobenzofuran-5-carboxamide], the IC50 in test [1] and in test [2] was under 0.3 µM throughout.

Regarding `C[C@H](Nc1cnc2cnn(C)c2n1)c1cccc(NC(=O)c2cnc3ncn(C)c3c2)c1` [Compound 77, (S)-1-methyl-N-(3-(1-((1-methyl-1H-pyrazolo[3,4-b]pyrazin-6-yl)amino)ethyl)phenyl)-1H-imidazo[4,5-b] pyridine-6-carboxamide], the concentration for half-maximal inhibition (IC50) in test [1] is under 0.3 µM; in test [2] it was 0.3 to 1 µM.

Regarding `C[C@H](Nc1cnc2cnn(C)c2n1)c1cccc(NC(=O)c2ccc3c(c2)SCCN3)c1` [Compound 79, (S)-N-(3-(1-((1-methyl-1H-pyrazolo[3,4-d]pyrazin-6-yl)amino)ethyl)phenyl)-3,4-dihydro-2H-benzo[b] [1,4]thiazine-7-carboxamide], the IC50 in test [1] and in test [2] was under 0.3 µM throughout.

Regarding `Cc1cncc(C(=O)Nc2cccc([C@H](C)Nc3cnc4ccn(C)c4c3)c2)c1` [Compound 80, (S)-5-methyl-N-(3-(1-((1-methyl-1H-pyrrolo[3,2-b]pyridin-6-yl)amino)ethyl)phenyl)nicotinamide], the 50% inhibitory concentration (IC50) in test [1] was 0.3 to 1 µM; in test [2] it was at least 1 µM.

`COc1ccc(Cn2ccc3ncc(N[C@@H](C)c4cccc(NC(=O)c5cncc(C)c5)c4)cc32)cc1OC` [Compound 81, (S)-N-(3-(1-((1-(3,4-dimethoxybenzyl)-1H-pyrrolo [3,2-b]pyridin-6-yl)amino)ethyl)phenyl)-5-methylnicotinamide]: the IC50 in test [1] and in test [2] was at least 1 µM in each case.

(Values after patent US20230102554A1 (GB002, INC., priority 2019, published 2023).)
